Source: patent US20120213827A1, “PROCESS FOR CONTROLLED CRYSTALLIZATION OF AN ACTIVE PHARMACEUTICAL INGREDIENT FROM SUPERCOOLED LIQUID STATE BY HOT MELT EXTRUSION” (priority 2011, published 2012)

Experiment: Particle size analysis of dalcetrapib crystals (Malvern MasterSizer 2000, laser diffraction)
Type: physicochemical
Settings: dispersant 0.1N HCl, sonicated 10 minutes
Protocol: The particle size distribution of dalcetrapib crystals from the bulk API and in the matrix of a hot-melt extruded composition produced according to Example 1 was determined according to the following method:
(§1) A Malvern MasterSizer 2000 was used for particle size measurement. The Fraunhofer optical model employed for analysis. The sample handling unit was a Hydro 2000S sonicator: Elma Model 9331. Sample measurement time was 20,000 snaps. The sample background time was 20,000 snaps. The dispersant media was 0.1N HCl, and the pump/stir speed was 2000 RPM.
Sample preparation was as follows: About 10-15 mg of the sample was weighed in 20 mL scintillation vial and 10 mL of de-ionized 0.1N HCl was added. The sample was vortexed for 15 seconds and then sonicated for 10 minutes @ 100% power.
The particle size distribution of dalcetrapib crystals in the matrices of hot-melt extruded compositions produced according to Example 5 was determined according to the following method:
as §1, with “MasterSizer®” for “MasterSizer”, “Fraunhofer®” for “Fraunhofer”, “RPM” for “RPM.”
Sample preparation was as follows: About 10-15 mg of the sample was weighed in a 20 mL scintillation vial and 10 mL of de-ionized 0.1N HCl was added. The sample was vortexed for 15 seconds and then sonicated for 10 minutes at 100% power.

mean particle diameter D(0.1): 1.493 μm
mean particle diameter D(0.5): 12.317 μm
mean particle diameter D(0.9): 28.828 μm
SMILES: CCC(CC)CC1(C(=O)Nc2ccccc2SC(=O)C(C)C)CCCCC1 [bulk dalcetrapib, dalcetrapib]
